Like-named read-outs stand apart in the source and are kept apart here. Marks after values point to notes of the source that are not given here.
Columns and labels:
[1] = molecular target: T1, α-glucosidase (rice) (Oryza sativa subsp. japonica, UniProt Q653V7); experiment: glycosidase inhibition assay, α-glucosidase from rice; type: biochemical; conditions: for inhibition at 1000 µM: pH 5.1, 1 mM inhibitor, pH 5.1, p-nitrophenyl glycoside 1 mM, read-out: % inhibition at 1 mM concentration of inhibitor
T1 construct: purchased Sigma Chemical Co
T1 sequence (Q653V7 34-885): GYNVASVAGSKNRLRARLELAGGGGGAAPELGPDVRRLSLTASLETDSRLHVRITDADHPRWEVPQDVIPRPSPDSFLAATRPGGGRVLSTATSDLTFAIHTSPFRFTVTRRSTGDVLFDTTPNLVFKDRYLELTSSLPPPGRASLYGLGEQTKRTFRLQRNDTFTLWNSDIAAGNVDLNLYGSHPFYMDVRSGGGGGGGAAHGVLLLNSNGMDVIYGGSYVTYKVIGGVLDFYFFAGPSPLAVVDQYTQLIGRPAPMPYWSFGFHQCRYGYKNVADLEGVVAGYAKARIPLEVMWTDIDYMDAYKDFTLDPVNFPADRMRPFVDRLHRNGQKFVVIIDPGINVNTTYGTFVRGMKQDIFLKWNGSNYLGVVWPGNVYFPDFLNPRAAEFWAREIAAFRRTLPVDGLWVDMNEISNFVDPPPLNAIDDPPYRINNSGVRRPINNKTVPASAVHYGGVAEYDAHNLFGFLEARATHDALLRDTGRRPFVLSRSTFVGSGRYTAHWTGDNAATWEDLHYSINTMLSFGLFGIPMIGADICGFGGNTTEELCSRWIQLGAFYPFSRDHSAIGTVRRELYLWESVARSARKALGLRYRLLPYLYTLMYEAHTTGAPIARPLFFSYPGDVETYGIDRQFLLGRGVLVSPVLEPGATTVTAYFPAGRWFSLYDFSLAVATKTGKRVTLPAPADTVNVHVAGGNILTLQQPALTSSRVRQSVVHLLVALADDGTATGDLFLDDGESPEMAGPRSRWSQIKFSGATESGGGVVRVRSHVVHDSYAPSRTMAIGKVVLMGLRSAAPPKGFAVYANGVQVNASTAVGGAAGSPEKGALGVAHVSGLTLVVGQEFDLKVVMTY
Method: (§1) A prepared sample of DAB-1 8 was also tested under the same conditions for ease of comparison. A first set of biological assays was effected at 1 mM concentration of inhibitor. […] Former results from our laboratories have always followed this empirical rule.
(§2) All the enzymes were purchased from Sigma Chemical Co. In a typical experiment, the glycosidase (0.013 U/mL) was pre-incubated at 33 °C for 5 min in the presence of the inhibitor in 50 mM acetate buffer (pH 5.6, except for rice α-glucosidase pH 5.1 and yeast α-glucosidase pH 6.2). The reaction was started by the addition of the appropriate substrate (p-nitrophenyl glycoside, 1 mM concentration) to a final volume of 250 µL. The reaction was stopped after 10–15 min (depending on the enzyme) by the addition of 350 µL of 0.4 M Na2CO3. The released p-nitrophenolate was quantified spectrophotometrically at 415 nm with a microplate reader (300 µL of the reaction mixture per well). […] All the assays were performed in duplicate (less than 10% variability in each case).

[2] = molecular target: T2, α-glucosidase (Sac. cerevisiae) (Saccharomyces cerevisiae, UniProt P53341); experiment: glycosidase inhibition assay, α-glucosidase from yeast; type: biochemical; conditions: for inhibition at 1000 µM: pH 6.2, read-out: % inhibition at 1 mM concentration of inhibitor, 1 mM inhibitor, negative values mean activation
T2 construct: purchased Sigma Chemical Co
T2 sequence (P53341 whole entry): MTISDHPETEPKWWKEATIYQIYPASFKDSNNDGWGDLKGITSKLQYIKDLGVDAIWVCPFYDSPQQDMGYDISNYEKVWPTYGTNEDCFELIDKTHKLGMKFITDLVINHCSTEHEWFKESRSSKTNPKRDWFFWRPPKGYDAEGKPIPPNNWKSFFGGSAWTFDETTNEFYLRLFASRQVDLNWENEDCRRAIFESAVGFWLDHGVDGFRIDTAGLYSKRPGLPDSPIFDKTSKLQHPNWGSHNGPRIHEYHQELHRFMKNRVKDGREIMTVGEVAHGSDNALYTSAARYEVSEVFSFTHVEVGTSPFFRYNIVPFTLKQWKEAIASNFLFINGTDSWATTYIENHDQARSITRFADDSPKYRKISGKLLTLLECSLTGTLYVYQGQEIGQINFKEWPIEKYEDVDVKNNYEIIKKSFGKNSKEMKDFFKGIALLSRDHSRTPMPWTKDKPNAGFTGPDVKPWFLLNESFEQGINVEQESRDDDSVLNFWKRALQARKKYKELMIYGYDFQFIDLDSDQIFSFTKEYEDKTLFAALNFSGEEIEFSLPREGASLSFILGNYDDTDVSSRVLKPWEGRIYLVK
Method: as §1, §2

[3] = system: β-glucosidase (almond); experiment: glycosidase inhibition assay, β-glucosidase from almond; type: biochemical; conditions: pH 5.6; for % inhibition at 1 mM concentration of inhibitor: 1 mM inhibitor
Method: as §1, §2

[4] = molecular target: T3, β-glucosidase (Asp. niger) (Aspergillus niger, UniProt A2RAL4); experiment: glycosidase inhibition assay, β-glucosidase from A. niger; type: biochemical; conditions: for inhibition at 1000 µM: pH 5.6, 1 mM inhibitor, pH 5.6, read-out: % inhibition at 1 mM concentration of inhibitor
T3 construct: purchased Sigma Chemical Co
T3 sequence (A2RAL4 20-860): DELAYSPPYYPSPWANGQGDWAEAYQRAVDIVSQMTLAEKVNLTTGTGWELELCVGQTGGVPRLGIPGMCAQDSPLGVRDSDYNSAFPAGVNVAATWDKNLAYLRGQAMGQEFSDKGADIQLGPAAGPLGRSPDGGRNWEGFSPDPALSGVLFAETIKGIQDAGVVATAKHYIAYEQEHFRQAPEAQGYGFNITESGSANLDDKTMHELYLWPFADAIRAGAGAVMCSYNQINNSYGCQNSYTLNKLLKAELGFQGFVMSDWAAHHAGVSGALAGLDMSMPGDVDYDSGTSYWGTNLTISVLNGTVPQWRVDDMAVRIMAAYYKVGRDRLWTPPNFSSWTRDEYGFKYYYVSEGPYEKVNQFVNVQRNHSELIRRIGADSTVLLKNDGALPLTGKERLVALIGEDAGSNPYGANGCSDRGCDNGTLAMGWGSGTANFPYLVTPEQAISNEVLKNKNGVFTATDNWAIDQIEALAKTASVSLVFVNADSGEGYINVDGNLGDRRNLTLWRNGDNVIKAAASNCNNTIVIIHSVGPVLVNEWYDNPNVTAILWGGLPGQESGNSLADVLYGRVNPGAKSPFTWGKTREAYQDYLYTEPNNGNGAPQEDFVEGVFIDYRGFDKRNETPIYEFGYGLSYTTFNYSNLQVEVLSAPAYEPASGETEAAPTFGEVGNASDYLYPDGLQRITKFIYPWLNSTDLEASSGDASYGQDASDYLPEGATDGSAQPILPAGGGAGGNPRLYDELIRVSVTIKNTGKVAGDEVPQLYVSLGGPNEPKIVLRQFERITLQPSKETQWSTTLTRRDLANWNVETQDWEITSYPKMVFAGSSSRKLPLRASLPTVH
Method: as §1, §2

[5] = molecular target: T4, β-galactosidase (Asp. orizae) (Aspergillus oryzae, UniProt Q2UCU3); experiment: glycosidase inhibition assay, β-galactosidase from A. orizae; type: biochemical; conditions: for inhibition at 1000 µM: pH 5.6, read-out: % inhibition at 1 mM concentration of inhibitor; for IC50: pH 5.6
T4 construct: purchased Sigma Chemical Co
T4 sequence (Q2UCU3 19-1005): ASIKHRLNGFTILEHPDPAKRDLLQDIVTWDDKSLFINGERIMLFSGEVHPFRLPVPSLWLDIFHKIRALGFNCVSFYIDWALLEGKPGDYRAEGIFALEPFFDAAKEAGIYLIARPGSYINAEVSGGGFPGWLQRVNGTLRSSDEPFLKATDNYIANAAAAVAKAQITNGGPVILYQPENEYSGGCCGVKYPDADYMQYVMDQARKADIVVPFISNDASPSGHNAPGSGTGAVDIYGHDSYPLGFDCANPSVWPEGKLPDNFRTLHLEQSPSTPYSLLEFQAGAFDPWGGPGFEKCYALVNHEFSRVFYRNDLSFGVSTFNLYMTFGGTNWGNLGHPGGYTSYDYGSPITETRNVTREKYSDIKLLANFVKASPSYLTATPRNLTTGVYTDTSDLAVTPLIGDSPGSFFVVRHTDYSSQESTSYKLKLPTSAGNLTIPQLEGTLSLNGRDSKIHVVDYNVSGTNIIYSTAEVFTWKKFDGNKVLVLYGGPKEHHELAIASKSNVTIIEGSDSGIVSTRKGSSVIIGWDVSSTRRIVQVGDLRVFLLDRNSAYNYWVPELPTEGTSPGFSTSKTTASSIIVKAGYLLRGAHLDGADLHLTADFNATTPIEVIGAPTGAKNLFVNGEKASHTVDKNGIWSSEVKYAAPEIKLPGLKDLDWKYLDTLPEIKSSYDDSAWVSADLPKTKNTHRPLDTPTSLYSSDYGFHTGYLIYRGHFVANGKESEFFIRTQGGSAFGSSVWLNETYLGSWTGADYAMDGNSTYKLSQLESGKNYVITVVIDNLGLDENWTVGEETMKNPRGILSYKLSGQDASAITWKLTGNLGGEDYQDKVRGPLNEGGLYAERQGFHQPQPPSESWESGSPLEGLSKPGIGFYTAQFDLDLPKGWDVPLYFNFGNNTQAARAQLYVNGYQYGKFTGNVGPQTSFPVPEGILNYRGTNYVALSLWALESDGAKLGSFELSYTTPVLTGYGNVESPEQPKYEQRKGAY
Method: as §1, §2

[6] = molecular target: T5, α-mannosidase (Jack bean) (Canavalia ensiformis, UniProt C0HJB3); experiment: glycosidase inhibition assay, α-mannosidase from Jack bean; type: biochemical
T5 construct: purchased Sigma Chemical Co
T5 sequence (C0HJB3 1-981): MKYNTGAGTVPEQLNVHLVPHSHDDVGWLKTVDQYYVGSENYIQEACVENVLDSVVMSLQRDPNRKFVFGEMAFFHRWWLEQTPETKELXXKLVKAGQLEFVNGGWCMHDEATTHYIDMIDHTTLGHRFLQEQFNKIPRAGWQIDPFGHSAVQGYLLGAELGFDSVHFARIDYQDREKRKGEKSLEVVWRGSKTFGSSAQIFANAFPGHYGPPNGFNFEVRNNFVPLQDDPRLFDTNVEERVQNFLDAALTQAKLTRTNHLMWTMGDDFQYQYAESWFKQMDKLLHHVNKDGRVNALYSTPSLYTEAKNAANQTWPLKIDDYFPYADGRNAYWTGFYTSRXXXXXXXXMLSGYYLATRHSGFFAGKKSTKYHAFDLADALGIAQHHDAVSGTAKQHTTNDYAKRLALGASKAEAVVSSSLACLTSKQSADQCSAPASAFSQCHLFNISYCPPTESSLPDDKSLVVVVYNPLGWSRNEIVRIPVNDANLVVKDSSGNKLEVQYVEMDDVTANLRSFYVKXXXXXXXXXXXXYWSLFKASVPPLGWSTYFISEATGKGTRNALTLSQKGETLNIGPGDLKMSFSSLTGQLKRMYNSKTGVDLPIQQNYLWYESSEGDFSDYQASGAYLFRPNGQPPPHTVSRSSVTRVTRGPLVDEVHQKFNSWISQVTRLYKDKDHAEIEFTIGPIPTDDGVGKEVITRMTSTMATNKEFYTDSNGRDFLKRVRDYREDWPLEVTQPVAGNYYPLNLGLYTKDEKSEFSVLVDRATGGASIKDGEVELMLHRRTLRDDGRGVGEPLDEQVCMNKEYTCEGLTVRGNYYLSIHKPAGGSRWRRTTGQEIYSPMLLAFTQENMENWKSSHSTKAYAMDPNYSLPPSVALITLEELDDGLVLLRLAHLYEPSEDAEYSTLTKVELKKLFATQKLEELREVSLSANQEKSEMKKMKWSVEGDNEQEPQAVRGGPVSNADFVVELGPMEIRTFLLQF
Method: as §1, §2

[7] = system: α-rhamnosidase (Asp. niger); experiment: glycosidase inhibition assay, α-rhamnosidase from A. niger; type: biochemical; conditions: 1 mM inhibitor; pH 5.6
Method: as §1, §2

[8] = molecular target: T6, α-galactosidase (green coffee) (Coffea arabica, UniProt Q42656); experiment: glycosidase inhibition assay, α-galactosidase from green coffee bean; type: biochemical; conditions: 1 mM inhibitor; pH 5.6; read-out: % inhibition at 1 mM concentration of inhibitor
T6 construct: purchased Sigma Chemical Co
T6 sequence (Q42656 16-378): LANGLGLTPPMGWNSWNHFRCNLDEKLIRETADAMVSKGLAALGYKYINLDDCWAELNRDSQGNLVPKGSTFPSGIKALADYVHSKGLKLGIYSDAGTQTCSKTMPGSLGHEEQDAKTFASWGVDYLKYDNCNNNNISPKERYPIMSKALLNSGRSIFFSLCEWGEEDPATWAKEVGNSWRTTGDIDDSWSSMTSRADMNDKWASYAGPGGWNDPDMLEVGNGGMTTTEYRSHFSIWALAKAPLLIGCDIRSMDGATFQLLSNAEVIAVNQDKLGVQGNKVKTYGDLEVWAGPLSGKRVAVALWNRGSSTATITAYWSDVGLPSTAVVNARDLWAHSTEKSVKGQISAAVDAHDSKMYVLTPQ
Method: as §1, §2

[9] = system: β-GlcNAc-ase (Jack bean); experiment: glycosidase inhibition assay, β-N-acetylglucosaminidase from Jack bean; type: biochemical; conditions: for % inhibition at 1 mM concentration of inhibitor: 1 mM inhibitor, pH 5.6, negative values mean activation; for activation of enzyme activity: 1 mM compound
Method: as §1, §2

[10] = molecular target: fucosidase; set-up: method as in PMID 27138139; conditions: cited from earlier work
[11] = pH 5.6, read-out: % inhibition at 1 mM concentration of inhibitor
[12] = 1 mM inhibitor, pH 5.6, read-out: % inhibition at 1 mM concentration of inhibitor

SMILES | inhibition at 1000 µM [1] | inhibition at 1000 µM ([2]; pH 6.2) | % inhibition at 1 mM concentration of inhibitor [3] | inhibition at 1000 µM [4] | inhibition at 1000 µM [5] | inhibition at 1000 µM [6, 11] | % inhibition at 1 mM concentration of inhibitor [7] | inhibition at 1000 µM [8] | % inhibition at 1 mM concentration of inhibitor [9] | inhibition at 1000 µM [6, 12] | IC50 ([6]; pH 5.6) | also measured
OC[C@@H]1[C@@H](O)[C@H](O)CN1Cc1cccc(CN2C[C@@H](O)[C@H](O)[C@H]2CO)c1 [13a] | 40% | 88% | 13% | 24% | 93% | 75% | 67% | 38% | NI (NI means no impact on enzyme activity (less than 5% inhibition or activation)) |  |  | 
OC[C@@H]1[C@@H](O)[C@H](O)CN1CCOCCOCCN1C[C@@H](O)[C@H](O)[C@H]1CO [13d] | ~90% | ~90% | 24% | ~90% | 92% | 82% | 46% | 22% | –38% ^c |  |  | activation of enzyme activity [9]: 38%
OC[C@@H]1[C@@H](O)[C@H](O)CN1CCCOCCOCCOCCCN1C[C@@H](O)[C@H](O)[C@H]1CO [13e] | 72% | 65% | 23% | 91% | 81% |  | 18% | 22% | NI (NI means no impact on enzyme activity (less than 5% inhibition or activation)) | > 95% | 34 µM | 
OC[C@H]1NC[C@@H](O)[C@@H]1O [DAB-1] | > 95% | > 95% | 95% | > 95% | 76% |  | 34% | 11% | 14% | > 95% | 49 µM | IC50 [1]: 7.8 µM; IC50 ([2]; pH 6.2, determined when >95% inhibition at 1 mM, read-out: IC50): 0.69 µM; IC50 [3]: 79 µM; IC50 [4]: 62 µM
OC[C@@H]1[C@@H](O)[C@H](O)CN1CCCCCCCCN1C[C@@H](O)[C@H](O)[C@H]1CO [13c] | 92% | 88% | 60% | 94% | > 95% |  | 69% | 61% | NI (NI means no impact on enzyme activity (less than 5% inhibition or activation)) | > 95% | 18 µM | IC50 [5]: 31 µM
OC[C@@H]1[C@@H](O)[C@H](O)CN1Cc1ccc(CN2C[C@@H](O)[C@H](O)[C@H]2CO)cc1 [13b] | 77% | 95% | 16% | 43% | > 95% |  | 24% | < 5% | NI (NI means no impact on enzyme activity (less than 5% inhibition or activation)) | 84% |  | IC50 [2]: 39 µM; IC50 [5]: 2.8 µM
C=CC[C@@H]1[C@@H](O)[C@H](O)[C@@H](CO)N1CCOCCOCCN1[C@H](CO)[C@@H](O)[C@H](O)[C@H]1CC=C [16d] | 26% | -20% | 25% | 51% | 58% | 32% | 25% | < 5% | –33% ^c |  |  | enhancement of enzyme activity ([2]; activation, 1 mM compound): 20%; activation of enzyme activity [9]: 33%
C[C@@H]1N[C@@H](CCCC[C@@H]2N[C@@H](C)[C@@H](O)[C@H]2O)[C@H](O)[C@@H]1O [compound 6] |  |  |  |  |  |  |  |  |  |  |  | IC50 [10]: 0.108 µM; fold increase in the inhibition potency relative to the monomer ([10]; dimer vs monomer): 19 fold

Source: PMC11767490, “A Bis-Glycosylamine Strategy for the Synthesis of Dimeric Iminosugars Based on a DAB-1 Scaffold” (Molecules, 2025)
